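Results reflect a 48-hour exposure of cells in 96-well plates to compound at five concentrations. TGI is the concentration that stops growth completely.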
Legend:
Assay in all cases: DTP human tumour cell line panel, 48 h
[1] = test system: A498 renal
[2] = test system: NCI-H460 lung
[3] = test system: SK-OV-3 ovarian
[4] = test system: BT-549 breast
[5] = test system: HOP-92 NSCLC
[6] = test system: RXF 393 renal
[7] = test system: MDA-MB-435
[8] = test system: NCI-H226 lung
[9] = test system: SF-295 CNS
[10] = test system: MALME-3M melanoma

Compound	TGI [1]	TGI [2]	TGI [3]	TGI [4]	TGI [5]	TGI [6]	TGI [7]	TGI [8]	TGI [9]	TGI [10]
C/C(N=Nc1nc2ccccc2o1)=C1/C=CC=CN1O	> 100 µM	> 100 µM	> 100 µM	> 100 µM	39.7 µM	> 100 µM	> 100 µM	> 100 µM	10.1 µM	12.2 µM
O=C1C[C@H](c2ccccc2)C2(C(=O)c3ccccc3C2=O)[C@H](c2ccccc2)C1	> 100 µM	> 100 µM	> 100 µM	> 100 µM	> 100 µM	50.5 µM	> 100 µM	> 100 µM	> 100 µM	> 100 µM
CC(=O)NC1=CC(=O)c2cc(C)cc(O)c2C1=O	27.5 µM	36.1 µM	> 83.5 µM	18.9 µM	22.7 µM	26.8 µM	1.96 µM	38.5 µM	39.4 µM	4.33 µM
CC(C)C(C/C=C1\CC(CO)(COC(=O)CC(C(C)C)C(C)C)OC1=O)C(C)C (stereo not drawn)	25.5 µM	21.7 µM	32.1 µM	27.8 µM	16.6 µM	28.4 µM	19.7 µM	24.4 µM	20.2 µM	14.5 µM
CC(C)(C)OC(=O)NCC(=O)N1CCCN(C(=O)CNC(=O)OC(C)(C)C)CC1	> 100 µM	> 100 µM	> 100 µM	> 100 µM	> 100 µM	> 100 µM	> 100 µM	> 100 µM	> 100 µM	> 100 µM
COc1ccc(/C=N/n2c(Cc3ccc(Cl)cc3)n[nH]c2=O)c(OC)c1	51.1 µM	> 100 µM	> 100 µM	67 µM	65.9 µM	41.7 µM	> 100 µM	61.2 µM	42.9 µM	> 100 µM
CN(C)CCOC1(CC2CCCCC2)CCC(C(C)(C)C)CC1 (stereo not drawn)	12.9 µM	9.65 µM	24.7 µM	20.4 µM	17.5 µM	8.96 µM	13.8 µM	21.2 µM	12 µM	6.65 µM
CC(C)(C)c1cc(C2COC(=O)COCC(=O)OCCOCCOCCO2)cc(C(C)(C)C)c1O (stereo not drawn)	> 91.9 µM	98.5 µM	55.9 µM	> 100 µM	59.3 µM	41.3 µM	43 µM	> 100 µM	58.5 µM	> 100 µM
O=c1[nH]c2ccccc2c2oc(-c3ccccc3)nc12	59.5 µM	> 100 µM	> 100 µM	> 100 µM	56.7 µM	44 µM	38 µM	> 100 µM	57.6 µM	> 100 µM
CCOc1cc(C2SCC(=O)N2c2nc3cc4sc(N5C(=O)CSC5c5ccc(O)c(OCC)c5)nc4cc3s2)ccc1O (stereo not drawn)	> 100 µM	> 27.5 µM	> 100 µM	> 85.4 µM	> 88.6 µM	> 100 µM	> 100 µM	> 94.4 µM	> 100 µM	> 100 µM
COC1/C=C/C(C)C(C(C)C(OC)C(C)CCC(=O)C(C)C(C/C=C/N(C)C=O)OC)OC(=O)/C=C/C=C(\C)CC(OC)C(OC)C2=CC(=O)O[C@@H](C(C)C(OC)CC(OC)/C=C/C(C)C(O)C1)[C@H]2O (stereo partly drawn)	0.233 µM	0.553 µM	–	0.544 µM	0.115 µM	0.263 µM	0.977 µM	0.244 µM	0.273 µM	0.493 µM
CCCCCCCCC/C=C1\CC(CO)(COC(=O)c2ccccc2)OC1=O (stereo not drawn)	58.3 µM	47.6 µM	43.3 µM	52.1 µM	30.4 µM	47.4 µM	36.3 µM	57.9 µM	39 µM	39.5 µM
C[C@H](CCC1=NCCN1)[C@H]1CC[C@H]2[C@@H]3CC[C@@H]4C[C@H](O)CC[C@]4(C)[C@H]3C[C@H](O)[C@]12C	65.1 µM	31.2 µM	31.9 µM	33.1 µM	30.9 µM	35.9 µM	28.9 µM	31 µM	29 µM	27.9 µM
CCOC(=O)C(C)c1nc2cc(N3CCN(C)CC3)c(F)cc2[nH]c1=O (stereo not drawn)	> 100 µM	> 100 µM	> 100 µM	> 100 µM	> 100 µM	> 100 µM	> 100 µM	> 100 µM	> 100 µM	> 100 µM
CCCCCCOc1ccc(NC2=C(Cl)C(=O)c3ncccc3C2=O)cc1	> 10 µM	3.18 µM	> 10 µM	3.56 µM	> 10 µM	3.7 µM	3.27 µM	> 10 µM	3.59 µM	3.77 µM
CC(=N\N=C\c1ccccn1)/C(C)=N/N=C(C)/C(C)=N/N=C(C)/C(C)=N/N=C/c1ccccn1	> 100 µM	> 100 µM	> 100 µM	> 100 µM	> 100 µM	> 100 µM	> 100 µM	> 100 µM	> 100 µM	> 100 µM
N#Cc1nc(/C=C/c2ccccc2)oc1N	> 100 µM	> 100 µM	> 100 µM	> 100 µM	> 100 µM	> 100 µM	> 100 µM	> 100 µM	> 100 µM	> 100 µM
Cc1c(F)c(N)c2c(=O)cc(-c3ccc(NC(=O)C(N)CCCN=C(N)N)c(F)c3)oc2c1F (stereo not drawn)	0.281 µM	> 64.9 µM	> 68.2 µM	51.5 µM	> 100 µM	59.3 µM	> 83.6 µM	0.758 µM	> 56 µM	62.5 µM
O=C1C(N=Nc2ccc(-c3nc4ccccc4[nH]3)cc2)NC(=S)N1c1ccccc1 (stereo not drawn)	> 100 µM	> 100 µM	> 100 µM	> 100 µM	> 100 µM	47.3 µM	> 100 µM	> 100 µM	> 100 µM	> 100 µM
CC(=O)NC1=C(C)C(=O)c2c(nc3n2CC[C@H]3OC(C)=O)C1=O	30.5 µM	9.11 µM	–	3.01 µM	1.83 µM	3.12 µM	1.85 µM	29.7 µM	5.49 µM	3.14 µM

Source: PubChem BioAssay (NCI)
